{"source": "patent US20160106687A1", "about": "“HUMAN THERAPEUTIC AGENTS” (Life Plus, LLC, priority 2014, published 2016)", "format_in_all_cases": "cell-based", "key": {"[1]": {"tested_on": "human prostate cancer cells (22rv1)", "experiment": "Cell death in prostate cancer spheroids, PrestoBlue", "conditions": "techniques of Example 1", "procedure": "(§1) The respective cells were individually cultured in a growth medium prepared using RPMI-1640 medium containing 11.1 mM D-glucose with 10% fetal bovine serum, 10 mM HEPES, 2 mM L-glutamine, 1 mM sodium pyruvate, 0.05 mM 2-mercaptoethanol, and Antibiotic-Antimycotic. These cells were maintained in T75 tissue culture flasks in a humidified incubator at 37° C. and 5% CO2. The media were changed on a third day after cell plating, and the cells were passaged on day 5 by trypsinization.\n(§2) Custom-made micromolds with 100 um diameter wells were loaded with the cells (U.S. Pat. No. 8,735,154, incorporated by reference herein). The media were changed every day by partial replacement. Cell aggregates were allowed to form in the micromolds for 72 hours and then were transferred to a 100 mm non-treated tissue culture dishes for 3 additional days. The spheroids were passed through 70 um and 100 μm cell strainers (#3431751 and #43152, Corning, Tewksbury, Mass.) and maintained in HEPES Balanced Salt Solution comprised of: 20 mM HEPES, 114 mM NaCl, 4.7 mM KCl, 1.2 mM KH2PO4, 1.16 mM MgSO4, 2.5 mM CaCl2, 25.5 mM NaHCO3 and 0.2% bovine serum albumin (fatty acid free), pH 7.2.\n(§3) The cells were treated and tested as set forth in Example 1."}, "[2]": {"tested_on": "human lung cancer cells (H358)", "experiment": "Cell death in lung cancer spheroids, PrestoBlue", "conditions": "techniques of Example 1", "procedure": "as §1, §2\nThe lymphomas treatment methods used were identical to those described in Example 2 relative to the pediatric leukemia cells, whereas the lung cancer treatment method was the same as described in Example 1."}, "[3]": {"tested_on": "human ovarian cancer cells (A1847)", "experiment": "Cell death in ovarian cancer spheroids, PrestoBlue", "conditions": "techniques of Example 1", "procedure": "as §1, §2, §3"}, "ovarian cancer cells": {"tested_on": "ovarian cancer cells", "experiment": "Synergism with doxorubicin on ovarian cancer spheroids", "conditions": "low doses, up to 0.158 μM", "procedure": "In this test, the synergism of GZ17-6.02 with doxorubicin (a common chemotherapy drug) was tested on ovarian cancer cells. In this test, increasing doses of doxorubicin were administered to ovarian cancer spheroids and cell deaths were measured, as described in Example 1. The protocol involved testing doxorubicin alone at various dosages (FIG. 8, doxorubicin alone—closed circles), with comparative tests using the various dosages of doxorubicin in combination with either 0.2 mg/mL (FIG. 8 open circles) or 0.4 mg/mL (FIG. 8 closed triangles) GZ17-6.02. Additionally, the induced cell death results from use of 0.2 mg/mL GZ17-6.02 alone (FIG. 8, line A) and 0.4 mg/mL GZ17-6.02 alone (FIG. 8, line B) were determined."}}}
{"smiles": "COc1cc(C=O)ccc1O", "note": "[vanillin]", "values": [{"measurement": "anticancer effects (cell number versus increasing concentrations), compound alone", "setting": "[1]", "result": "demonstrated anticancer effects"}, {"measurement": "anticancer effects (cell number versus increasing concentrations), compound alone", "setting": "[2]", "result": "demonstrated anticancer effects"}, {"measurement": "anticancer effects (cell number versus increasing concentrations), compound alone", "setting": "[3]", "result": "demonstrated anticancer effects"}]}
{"smiles": "Cc1nccc2c1[nH]c1cc(O)ccc12.Cl", "note": "[harmole hydrochloride]", "values": [{"measurement": "anticancer effects (cell number versus increasing concentrations), compound alone", "setting": "[1]", "result": "demonstrated anticancer effects"}, {"measurement": "anticancer effects (cell number versus increasing concentrations), compound alone", "setting": "[2]", "result": "demonstrated anticancer effects"}, {"measurement": "anticancer effects (cell number versus increasing concentrations), compound alone", "setting": "[3]", "result": "demonstrated anticancer effects"}]}
{"smiles": "COc1ccc(CO)cc1O", "note": "[isovanillyl alcohol]", "values": [{"measurement": "anticancer effects (cell number versus increasing concentrations), compound alone", "setting": "[1]", "result": "demonstrated anticancer effects"}, {"measurement": "anticancer effects (cell number versus increasing concentrations), compound alone", "setting": "[2]", "result": "demonstrated anticancer effects"}, {"measurement": "anticancer effects (cell number versus increasing concentrations), compound alone", "setting": "[3]", "result": "demonstrated anticancer effects"}]}
{"smiles": "CC1=NCCc2c1[nH]c1cc(O)ccc21.Cl", "note": "[harmalol hydrochloride]", "values": [{"measurement": "anticancer effects (cell number versus increasing concentrations), compound alone", "setting": "[1]", "result": "demonstrated anticancer effects"}, {"measurement": "anticancer effects (cell number versus increasing concentrations), compound alone", "setting": "[2]", "result": "demonstrated anticancer effects"}, {"measurement": "anticancer effects (cell number versus increasing concentrations), compound alone", "setting": "[3]", "result": "demonstrated anticancer effects"}]}
{"smiles": "COc1ccc2c3c([nH]c2c1)C(C)=NCC3", "note": "[harmaline]", "values": [{"measurement": "anticancer effects (cell number versus increasing concentrations), compound alone", "setting": "[1]", "result": "demonstrated anticancer effects"}, {"measurement": "anticancer effects (cell number versus increasing concentrations), compound alone", "setting": "[2]", "result": "demonstrated anticancer effects"}, {"measurement": "anticancer effects (cell number versus increasing concentrations), compound alone", "setting": "[3]", "result": "demonstrated anticancer effects"}]}
{"smiles": "COc1ccc(C(=O)O)cc1O", "note": "[isovanillic acid]", "values": [{"measurement": "anticancer effects (cell number versus increasing concentrations), compound alone", "setting": "[1]", "result": "demonstrated anticancer effects"}, {"measurement": "anticancer effects (cell number versus increasing concentrations), compound alone", "setting": "[2]", "result": "demonstrated anticancer effects"}, {"measurement": "anticancer effects (cell number versus increasing concentrations), compound alone", "setting": "[3]", "result": "demonstrated anticancer effects"}]}
{"smiles": "COc1cccc(C=O)c1O", "note": "[O-vanillin]", "values": [{"measurement": "anticancer effects (cell number versus increasing concentrations), compound alone", "setting": "[1]", "result": "demonstrated anticancer effects"}, {"measurement": "anticancer effects (cell number versus increasing concentrations), compound alone", "setting": "[2]", "result": "demonstrated anticancer effects"}, {"measurement": "anticancer effects (cell number versus increasing concentrations), compound alone", "setting": "[3]", "result": "demonstrated anticancer effects"}]}
{"smiles": "COc1cccc2c1C(=O)c1c(O)c3c(c(O)c1C2=O)C[C@@](O)(C(=O)CO)C[C@@H]3O[C@H]1C[C@H](N)[C@H](O)[C@H](C)O1", "note": "[doxorubicin]", "values": [{"measurement": "cell death, doxorubicin alone", "setting": "ovarian cancer cells", "result": "ineffective"}]}
{"smiles": "COc1ccc2c3c([nH]c2c1)[C@@H](C)NCC3", "note": "[tetrahydro-harmine]", "values": [{"measurement": "anticancer effects (cell number versus increasing concentrations), compound alone", "setting": "[1]", "result": "demonstrated anticancer effects"}, {"measurement": "anticancer effects (cell number versus increasing concentrations), compound alone", "setting": "[2]", "result": "demonstrated anticancer effects"}, {"measurement": "anticancer effects (cell number versus increasing concentrations), compound alone", "setting": "[3]", "result": "demonstrated anticancer effects"}]}
